Consider 15 molecules from patent EP4647433A1, “SHP2 INHIBITOR AND USES THEREOF” (Kanaph Therapeutics Inc., priority 2023, dated 2024).

The target in one series is T1, SHP2 (Homo sapiens, UniProt Q06124).
T1 construct: SHP2 (full length, diluted to 100 pM final concentration in reaction buffer, BPS bioscience, US); purchased BPS bioscience, US
T1 sequence (Q06124 1-593): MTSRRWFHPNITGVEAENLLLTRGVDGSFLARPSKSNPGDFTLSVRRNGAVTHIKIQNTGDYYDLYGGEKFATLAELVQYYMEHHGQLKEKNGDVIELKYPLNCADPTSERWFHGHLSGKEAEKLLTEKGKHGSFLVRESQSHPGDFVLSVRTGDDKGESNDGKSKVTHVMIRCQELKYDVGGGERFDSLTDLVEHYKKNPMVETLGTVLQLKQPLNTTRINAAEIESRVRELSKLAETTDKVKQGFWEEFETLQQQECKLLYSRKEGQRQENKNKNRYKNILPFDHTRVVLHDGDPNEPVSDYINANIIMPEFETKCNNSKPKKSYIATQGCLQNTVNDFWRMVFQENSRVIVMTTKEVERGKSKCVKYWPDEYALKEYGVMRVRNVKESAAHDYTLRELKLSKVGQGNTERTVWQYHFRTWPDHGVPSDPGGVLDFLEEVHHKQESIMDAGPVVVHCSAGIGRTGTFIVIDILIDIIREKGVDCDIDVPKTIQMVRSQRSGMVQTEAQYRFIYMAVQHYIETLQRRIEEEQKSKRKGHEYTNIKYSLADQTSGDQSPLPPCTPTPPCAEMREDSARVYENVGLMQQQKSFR
The series is described as follows: Phosphatase assay (PTPase assay, DiFMUP substrate). It is filed as biochemical. On the procedure: IC50 values were measured using 6,8-difluoro-4-methylumbelliferyl phosphate (DiFMUP) as a substrate. The reaction was performed in a 384-well plate, and fluorescence measurement values were obtained using an EnVision plate reader from PerkinElmer.
SHP2 (full length, diluted to 100 pM final concentration in reaction buffer, BPS bioscience, US) was incubated with the SHP2 activating peptide in reaction buffer (60 mM HEPES (pH 7.2), 75 mM NaCl, 75 mM KCl, 1 mM EDTA, 5 mM DTT, 0.05% P-20) for 30 minutes to activate SHP2. After activation, DMSO [1% (V/V) or the compound according to the Examples (concentration ranging from 0.6 nM to 10 µM)] was added. As a positive control group, the selective SHP2 inhibitors SHP099 (6-(4-amino-4-methylpiperidin-1-yl)-3-(2,3-dichlorophenyl)pyrazin-2-amine, FOCUS bioscience, Austrailia; concentration ranging from 0.6 nM to 10 µM) and TNO155 ((3S,4S)-8-(6-amino-5-((2-amino-3-chloropyridin-4-yl)thio)pyrazin-2-yl)-3-methyl-2-oxa-8-azaspiro[4.5]decan-4-amine, Chemietek, US; concentration ranging from 0.6 nM to 10 µM) were used. [drawing 184]
DiFMUP (80 µM) was added to the reaction and incubated for a total of 2 hours to allow for the reaction to proceed. Thereafter, fluorescence (340 nm excitation, 450 nm emission) values were measured. IC50 values were obtained using Graphad's Prism from the measured values depending on the concentration.
In the phosphatase assay (PTPase assay), when an IC50 value was 100 nM or more, + was indicated, when an IC50 value was 3 nM or more and less than 100 nM, ++ was indicated, and when an IC50 value was less than 3 nM, +++ was indicated.

The subject of the next series is phospho-ERK. The experiment in a line: phospho-ERK assay (AlphaLisa) in H358 cells. It is filed as cell-based. The settings on record: Homo sapiens, NCI-H358, 1.5 hours incubation, read-out: pERK assay (IC50). As for the experimental part:
H358 [20,000 cell/well] was contained in 40 µL of the cell culture solution (RPMI, 10% FBS, penicillin, streptomycin) and placed on a 384-well plate. After 24 hours, the serially diluted compound according to the Examples (concentration of minimum 0.13 nM, maximum 10 µM) was contained in 10 µL of the cell culture solution, put into wells containing cells, and incubated in a cell incubator for 1.5 hours. As a positive control group, the selective SHP2 inhibitor, TNO155 (Chemietek, US; concentration ranging from 0.13 nM to 10 µM) was used.
Thereafter, phospho-ERK was labeled using an AlphaLisa system from PerkinElmer according to the manufacturer's instructions, and then fluorescence (680 nm excitation wavelength, 615 nm emission wavelength) values were measured using a Varioskan equipment from Thermo. IC50 values were obtained using Graphad's Prism from the measured values depending on the concentration.
Intracellular SHP2 activity can be confirmed by measuring the degree of phosphorylation of ERK (extracellular signal regulated kinase), which represents Ras/Raf/ERK, a downstream signal pathway of SHP2. Inhibition of ERK phosphorylation by SHP2 inhibitors was confirmed through phospho-ERK analysis, which confirmed that the SHP2 inhibitors of the present disclosure have excellent activity in inhibiting ERK phosphorylation mediated by SHP2.
(In general: Alpha assays give light when donor and acceptor beads are brought close together.)

For a further series, the system named is H358 cells. The experiment in a line: Cell viability (3D spheroid, 3D CellTiter-Glo). Format: cell-based. The note with it: Homo sapiens, NCI-H358, 120 h; H358 spheroids, 5 days treatment. On the procedure: Human non-small cell lung cancer cell line H358 cells were purchased from the Korean Cell Line Bank. Cancer cell lines were cultured in the recommended RPMI-1640 medium supplemented with 10% fetal bovine serum (FBS) and 1% penicillin/streptomycin. Monolayer-cultured cancer cell lines were detached by treatment with Trypsin/EDTA, and 100 µL of cell suspension containing 4 x 10^3 cells was each dispensed into SPL3D™ Cell Floater, 96-well round plate, through cell line counting. After culturing for 72 hours to form spheroid, the cells were individually treated with the compounds according to the Examples, which had been serially diluted (minimum 1.5 nM, maximum 10 µM in concentration), and then cultured in a cell incubator for 5 days. To analyze cell viability, the cells were treated with 50 uL of 3D CellTiter-Glo, stirred for 5 minutes at 500 rpm in a plate shaker from Thermo Fisher Scientific, and incubated for 25 minutes at room temperature. Then, the luminescent values were measured using a Varioskan equipment from Thermo Fisher Scientific. IC50 values were obtained using GraphPad's Prism from the measured values depending on the concentration.
In the cell viability assay, when an IC50 value was 50 nM or more, + was indicated, when an IC50 value was 10 nM or more and less than 50 nM, ++ was indicated, and when an IC50 value was less than 10 nM, +++ was indicated.

Series [1] is described as follows: Brain-plasma Pharmacokinetics. The note with it: male, CD-1 (ICR), mouse, brain/plasma, 20 mg/kg.
Procedure: Nine male CD-1 mice (ICR mouse) aged 6 to 9 weeks were treated with the compounds according to the Examples at a concentration of 20 mg/kg. 0.025 mL of blood and brain tissue were collected at 1 hour, 8 hours, and 24 hours post-treatment, respectively. The collected blood was placed in an EDTA-K2 tube, centrifuged at 4°C at 3,200 x g for 10 minutes, and the supernatant plasma was collected. The brain tissue samples were collected immediately after euthanizing the CD-1 mice after blood collection and performing cardiac perfusion with cold saline. After collection, the brain tissues were washed with cold saline, wiped and dried, weighed, and homogenized using a homogenization buffer (15 mM PBS (pH 7.4): MeOH = 2:1) at a ratio of 1:3 (1 g of tissue to 3 mL of buffer, dilution ratio 4). Plasma and homogenized brain tissue samples were each transferred to a polypropylene microcentrifuge tube and stored at -60°C or lower. The concentration of compounds distributed in plasma and brain tissue was analyzed using LC-MS/MS, and the distribution in brain tissue compared to plasma was calculated as follows. Brain-to-plasma ratio = AUC(0-t) brain tissue /AUC(0-t) plasma [formula]
In the Brain-plasma Pharmacokinetics assay, when a brain-to-plasma ratio value was 0.05 or more and less than 0.1, + was indicated, when a brain-to-plasma ratio value was 0.1 or more and less than 0.25, ++ was indicated, and when a brain-to-plasma ratio value was more than 0.25, +++ was indicated.
The mark [2] stands for this setting: full length SHP2 100 pM activated with SHP2 activating peptide, DiFMUP 80 µM, 2 hours; read-out: PTPase assay (IC50).

By pIC50 is commonly meant the negative decadic logarithm of the IC50, by convention in mol/L. The Kp is the ratio of the level in a tissue or fluid to that in plasma or blood.

pIC50: −log10 of the molar value. Read-outs that look alike come from different tables or passages of the source.

Take `N[C@@H]1c2scnc2CC12CCN(c1cnc(Sc3ccc4nc[nH]c(=O)c4c3Cl)cn1)CC2` [Example 1, (S)-6-((5-(6-amino-4,6-dihydrospiro[cyclopenta[d]thiazole-5,4'-piperidin]-1'-yl)pyrazin-2-yl)thio)-5-chloroquinazolin-4(3H)-one]: the pIC50 is more than 8.52 at SHP2 (setting [2]) and more than 7.35 in the series on phospho-ERK.

For `Cn1cnc2ccc(Sc3cnc(N4CCC5(CC4)Cc4ncsc4[C@H]5N)cn3)c(Cl)c2c1=O` [Example 2, (S)-6-((5-(6-amino-4,6-dihydrospiro[cyclopenta[d]thiazole-5,4'-piperidin]-1'-yl)pyrazin-2-yl)thio)-5-chloro-3-methylquinazolin-4(3H)-one], the pIC50 was more than 8.52 on SHP2 (read-out: PTPase assay (IC50); full length SHP2 100 pM activated with SHP2 activating peptide, DiFMUP 80 µM, 2 hours); more than 7.35 in the series with phospho-ERK; more than 8.00 in the series with H358 cells.

With `CCn1cnc2ccc(Sc3cnc(N4CCC5(CC4)Cc4ncsc4[C@H]5N)cn3)c(Cl)c2c1=O` [Example 3, (S)-6-((5-(6-amino-4,6-dihydrospiro[cyclopenta[d]thiazole-5,4'-piperidin]-1'-yl)pyrazin-2-yl)thio)-5-chloro-3-ethylquinazolin-4(3H)-one], the pIC50 is more than 8.52 on SHP2 (setting [2]), more than 7.35 in the series on phospho-ERK and more than 8.00 in the series with H358 cells.

Turning to `CC(C)n1cnc2ccc(Sc3cnc(N4CCC5(CC4)Cc4ncsc4[C@H]5N)cn3)c(Cl)c2c1=O` [Example 4, (S)-6-((5-(6-amino-4,6-dihydrospiro[cyclopenta[d]thiazole-5,4'-piperidin]-1'-yl)pyrazin-2-yl)thio)-5-chloro-3-isopropylquinazolin-4(3H)-one], the pIC50 on SHP2 (setting [2]) is more than 8.52; in the series with phospho-ERK it was more than 7.35; in the series on H358 cells it was more than 8.00.

As for `COCCn1cnc2ccc(Sc3ncc(N4CCC5(CC4)Cc4ccccc4[C@H]5N)nc3N)c(Cl)c2c1=O` [Example 8, (S)-6-((3-amino-5-(1-amino-1,3-dihydrospiro[indene-2,4'-piperidin]-1'-yl)pyrazin-2-yl)thio)-5-chloro-3-(2-methoxyethyl)quinazolin-4(3H)-one], the pIC50 at SHP2 (setting [2]) was more than 8.52; in the series on phospho-ERK, more than 7.35.

Regarding `COC(C)Cn1cnc2ccc(Sc3ncc(N4CCC5(CC4)Cc4ccccc4[C@H]5N)nc3N)c(Cl)c2c1=O` (stereo partly drawn) [Example 9, 6-((3-amino-5-((S)-1-amino-1,3-dihydrospiro[indene-2,4'-piperidin]-1'-yl)pyrazin-2-yl)thio)-5-chloro-3-(2-methoxypropyl)quinazolin-4(3H)-one], the pIC50 at SHP2 (setting [2]) is more than 8.52; in the series with phospho-ERK, more than 7.35.

In the case of `Cn1cnc2ccc(Sc3ncc(N4CCC5(CC4)Cc4ccccc4[C@H]5N)nc3N)c(Cl)c2c1=O` [Example 10], the pIC50 at SHP2 (setting [2]) was more than 8.52; in the series with phospho-ERK it was more than 7.35.

Consider `C[C@@H]1OCC2(CCN(c3cnc(Sc4ccc5ccn(C)c(=O)c5c4Cl)cn3)CC2)[C@@H]1N` [Example 15, 7-((5-((3S,4S)-4-amino-3-methyl-2-oxa-8-azaspiro[4.5]decan-8-yl)pyrazin-2-yl)thio)-8-chloro-2-methylisoquinolin-1(2H)-one], for which the pIC50 on SHP2 (setting [2]) is more than 8.52; in the series on H358 cells, 7.30 to 8.00. In addition, in series [1], the Kp at 24 h is 0.05 to 0.1.

Consider `COC(C)(C)C(F)n1cnc2ccc(Sc3cnc(N4CCC5(CC4)CO[C@@H](C)[C@H]5N)cn3)c(Cl)c2c1=O` (stereo partly drawn) [Example 28, 6-((5-((3S,4S)-4-amino-3-methyl-2-oxa-8-azaspiro[4.5]decan-8-yl)pyrazin-2-yl)thio)-5-chloro-3-(1-fluoro-2-methoxy-2-methylpropyl)quinazolin-4(3H)-one], for which the pIC50 at SHP2 (setting [2]) is more than 8.52; with phospho-ERK, 5.82 to 7.35; with H358 cells, 7.30 to 8.00.

For the molecule `COC(C)Cn1c(C)nc2ccc(Sc3cnc(N4CCC5(CC4)CO[C@@H](C)[C@H]5N)cn3)c(Cl)c2c1=O` (stereo partly drawn) [Example 39, 6-((5-((3S,4S)-4-amino-3-methyl-2-oxa-8-azaspiro[4.5]decan-8-yl)pyrazin-2-yl)thio)-5-chloro-3-(2-methoxypropyl)-2-methylquinazolin-4(3H)-one], the values for the pIC50 on SHP2 (setting [2]), with phospho-ERK and in the series on H358 cells were more than 8.52, 5.82 to 7.35 and 7.30 to 8.00, respectively.

Regarding `CC(C)n1ccc2ccc(Sc3cnc(N4CCC5(CC4)Cc4ncsc4[C@H]5N)cn3)c(Cl)c2c1=O` [Example 40, (S)-7-((5-(6-amino-4,6-dihydrospiro[cyclopenta[d]thiazole-5,4'-piperidin]-1'-yl)pyrazin-2-yl)thio)-8-chloro-2-isopropylisoquinolin-1(2H)-one], the results for the pIC50 on SHP2 (setting [2]) and in the series on H358 cells were 7.00 to 8.52 and more than 8.00, respectively.

On to `COC(C)Cn1ccc2ccc(Sc3cnc(N4CCC5(CC4)Cc4ccccc4[C@H]5N)cn3)c(Cl)c2c1=O` (stereo partly drawn) [Example 42, 7-((5-((S)-1-amino-1,3-dihydrospiro[indene-2,4'-piperidin]-1'-yl)pyrazin-2-yl)thio)-8-chloro-2-(2-methoxypropyl)isoquinolin-1(2H)-one], for which the results for the pIC50 on SHP2 (setting [2]) and with H358 cells were more than 8.52 and more than 8.00, respectively.

With `CC(C)n1ccc2ccc(Sc3cnc(N4CCC5(CC4)CO[C@@H](C)[C@H]5N)cn3)c(Cl)c2c1=O` [Example 46, 7-((5-((3S,4S)-4-amino-3-methyl-2-oxa-8-azaspiro[4.5]decan-8-yl)pyrazin-2-yl)thio)-8-chloro-2-isopropylisoquinolin-1(2H)-one], the pIC50 was more than 8.52 at SHP2 (setting [2]) and 7.30 to 8.00 in the series with H358 cells.

The molecule `Cn1cnc2ccc(Sc3cnc(N4CCC5(CC4)Oc4ccccc4[C@H]5N)cn3)c(Cl)c2c1=O` [Example 51, (R)-6-((5-(3-amino-3H-spiro[benzofuran-2,4'-piperidin]-1'-yl)pyrazin-2-yl)thio)-5-chloro-3-methylquinazolin-4(3H)-one] registered a Kp at 24 h in series [1] of more than 0.25.

Take `N[C@@H]1c2ccccc2OC12CCN(c1cnc(Sc3ccc4ncn(-c5ccccc5)c(=O)c4c3Cl)cn1)CC2` [Example 52, (R)-6-((5-(3-amino-3H-spiro[benzofuran-2,4'-piperidin]-1'-yl)pyrazin-2-yl)thio)-5-chloro-3-phenylquinazolin-4(3H)-one]: the Kp at 24 h in series [1] was more than 0.25.
